Experimental data published in patent publication US20190231751A1, “TREATMENT OF FIBROTIC DISORDERS WITH JUN N-TERMINAL KINASE INHIBITORS” (Imago Pharmaceuticals, Inc., priority 2016, published 2019).

Experiments:
Assay type in all cases: biochemical
JNK2 = JNK2 (Homo sapiens, UniProt P45984); experiment: In vitro JNK2 inhibition (Table 1)
Method: (§1) In vitro assays for the determination of JNK activities are known in the art and exemplary assay formats are described herein.
(§2) IC50 values in Table 1 were determined using the procedures as described in U.S. Pat. No. 8,450,353.

JNK3 = JNK3 (Homo sapiens, UniProt P53779); experiment: In vitro JNK3 inhibition (Table 1)
Method: as §1, §2

JNK1 = JNK1 (Homo sapiens, UniProt P45983); experiment: In vitro JNK1 inhibition (Table 1)
Method: as §1, §2

Measured: IC50

Sequence of JNK3 (P53779 whole entry, species assumed): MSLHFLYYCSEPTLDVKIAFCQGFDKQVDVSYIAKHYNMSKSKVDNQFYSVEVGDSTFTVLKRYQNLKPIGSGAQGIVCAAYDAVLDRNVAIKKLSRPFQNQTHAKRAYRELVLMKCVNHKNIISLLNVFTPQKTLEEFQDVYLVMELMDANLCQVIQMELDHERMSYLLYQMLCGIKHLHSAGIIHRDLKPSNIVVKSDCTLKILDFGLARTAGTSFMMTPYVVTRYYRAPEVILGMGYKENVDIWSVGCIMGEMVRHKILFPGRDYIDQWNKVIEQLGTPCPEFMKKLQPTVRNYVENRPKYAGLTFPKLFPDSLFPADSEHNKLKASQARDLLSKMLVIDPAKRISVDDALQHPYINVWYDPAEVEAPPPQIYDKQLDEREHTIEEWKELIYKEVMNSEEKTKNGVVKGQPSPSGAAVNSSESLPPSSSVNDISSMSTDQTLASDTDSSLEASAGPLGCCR
Sequence of JNK2 (P45984 whole entry, species assumed): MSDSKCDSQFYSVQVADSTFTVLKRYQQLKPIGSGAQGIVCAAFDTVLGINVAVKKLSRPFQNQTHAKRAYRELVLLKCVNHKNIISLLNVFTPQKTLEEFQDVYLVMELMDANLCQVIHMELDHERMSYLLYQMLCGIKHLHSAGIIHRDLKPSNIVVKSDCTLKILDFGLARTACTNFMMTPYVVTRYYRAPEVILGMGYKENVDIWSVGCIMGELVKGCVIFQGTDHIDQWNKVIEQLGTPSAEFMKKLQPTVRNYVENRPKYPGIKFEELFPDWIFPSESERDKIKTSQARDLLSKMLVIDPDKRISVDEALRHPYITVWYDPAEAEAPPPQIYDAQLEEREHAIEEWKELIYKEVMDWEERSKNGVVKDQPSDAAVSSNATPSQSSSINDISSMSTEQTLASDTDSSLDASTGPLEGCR
Sequence of JNK1 (P45983 whole entry, species assumed): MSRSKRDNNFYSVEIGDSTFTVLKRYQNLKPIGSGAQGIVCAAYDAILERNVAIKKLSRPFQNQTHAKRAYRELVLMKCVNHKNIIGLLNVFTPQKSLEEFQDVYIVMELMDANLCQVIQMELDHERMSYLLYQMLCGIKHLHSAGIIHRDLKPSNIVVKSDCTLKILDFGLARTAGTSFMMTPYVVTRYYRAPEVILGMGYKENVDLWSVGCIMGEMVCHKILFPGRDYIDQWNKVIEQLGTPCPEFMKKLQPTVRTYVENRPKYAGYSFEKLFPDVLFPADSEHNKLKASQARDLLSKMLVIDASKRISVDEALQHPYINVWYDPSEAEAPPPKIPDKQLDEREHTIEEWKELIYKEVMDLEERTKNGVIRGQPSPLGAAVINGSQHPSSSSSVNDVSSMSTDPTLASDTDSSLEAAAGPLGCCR

O=C(Cn1c(=O)ccc2ccc(C(F)(F)F)cc21)Nc1scc(Br)c1-c1ncn[nH]1 [N-(4-bromo-3-(1H-1,2,4-triazol-5-yl)thiophen-2-yl)-2-(2-oxo-7-(trifluoromethyl)quinolin-1(2H)-yl)acetamide]
< 100 nM: JNK2 | JNK3 | JNK1

O=C(Cn1c(=O)ccc2c(F)cccc21)Nc1scc(Br)c1-c1ncn[nH]1 [N-(4-bromo-3-(1H-1,2,4-triazol-5-yl)thiophen-2-yl)-2-(5-fluoro-2-oxoquinolin-1(2H)-yl)acetamide]
< 100 nM: JNK2 | JNK3 | JNK1

O=C(Cn1c(=O)ccn2nc(C(F)(F)F)cc12)Nc1scc(Br)c1-c1ncn[nH]1 [N-(4-bromo-3-(1H-1,2,4-triazol-5-yl)thiophen-2-yl)-2-(5-oxo-2-(trifluoromethyl)pyrazolo[1,5-a]pyrimidin-4(5H)-yl)acetamide]
< 100 nM: JNK2 | JNK3 | JNK1

O=C(Cn1c(=O)ccn2nccc12)Nc1scc(Br)c1-c1ncn[nH]1 [N-(4-bromo-3-(1H-1,2,4-triazol-5-yl)thiophen-2-yl)-2-(5-oxopyrazolo[1,5-a]pyrimidin-4(5H)-yl)acetamide]
< 100 nM: JNK2 | JNK3 | JNK1

O=C(Cn1c(=O)ccc2cc(F)c(F)cc21)Nc1scc(Br)c1-c1ncn[nH]1 [N-(4-bromo-3-(1H-1,2,4-triazol-5-yl)thiophen-2-yl)-2-(6,7-difluoro-2-oxoquinolin-1(2H)-yl)acetamide]
< 100 nM: JNK2 | JNK3 | JNK1

O=C(Cn1c(=O)ccc2cc(Cl)ccc21)Nc1scc(Br)c1-c1ncn[nH]1 [N-(4-bromo-3-(1H-1,2,4-triazol-5-yl)thiophen-2-yl)-2-(6-chloro-2-oxoquinolin-1(2H)-yl)acetamide]
< 100 nM: JNK2 | JNK3 | JNK1

N#Cc1ccc2c(ccc(=O)n2CC(=O)Nc2scc(Br)c2-c2ncn[nH]2)c1 [N-(4-bromo-3-(1H-1,2,4-triazol-5-yl)thiophen-2-yl)-2-(6-cyano-2-oxoquinolin-1(2H)-yl)acetamide]
< 100 nM: JNK2 | JNK3 | JNK1

C#Cc1ccc2c(ccc(=O)n2CC(=O)Nc2scc(Br)c2-c2ncn[nH]2)c1 [N-(4-bromo-3-(1H-1,2,4-triazol-5-yl)thiophen-2-yl)-2-(6-ethynyl-2-oxoquinolin-1(2H)-yl)acetamide]
< 100 nM: JNK2 | JNK3 | JNK1

O=C(CN1C(=O)CCc2cc(F)ccc21)Nc1scc(Br)c1-c1ncn[nH]1 [N-(4-bromo-3-(1H-1,2,4-triazol-5-yl)thiophen-2-yl)-2-(6-fluoro-2-oxo-3,4-dihydroquinolin-1(2H)-yl)acetamide]
< 100 nM: JNK2 | JNK3 | JNK1

O=C(Cn1c(=O)ccc2cc(F)ccc21)Nc1scc(Br)c1-c1ncn[nH]1 [N-(4-bromo-3-(1H-1,2,4-triazol-5-yl)thiophen-2-yl)-2-(6-fluoro-2-oxoquinolin-1(2H)-yl)acetamide]
< 100 nM: JNK2 | JNK3 | JNK1

O=C(Cc1c(F)ccc2ncccc12)Nc1scc(Br)c1-c1ncn[nH]1 [N-(4-bromo-3-(1H-1,2,4-triazol-5-yl)thiophen-2-yl)-2-(6-fluoroquinolin-5-yl)acetamide]
< 100 nM: JNK2 | JNK3 | JNK1

O=C(CN1C(=O)CCc2ccc(Cl)cc21)Nc1scc(Br)c1-c1ncn[nH]1 [N-(4-bromo-3-(1H-1,2,4-triazol-5-yl)thiophen-2-yl)-2-(7-chloro-2-oxo-3,4-dihydroquinolin-1(2H)-yl)acetamide]
< 100 nM: JNK2 | JNK3 | JNK1

N#Cc1ccc2ccc(=O)n(CC(=O)Nc3scc(Br)c3-c3ncn[nH]3)c2c1 [N-(4-bromo-3-(1H-1,2,4-triazol-5-yl)thiophen-2-yl)-2-(7-cyano-2-oxoquinolin-1(2H)-yl)acetamide]
< 100 nM: JNK2 | JNK3 | JNK1
